This is an account of results in patent US10959966B2, “Compositions and methods for modulating HEXM1 expression” (CASE WESTERN RESERVE UNIVERSITY, priority 2014, dated 2021).

What all share (assay type): cell-based
Assay [1] deals with HEXIM1 expression in LNCaP prostate cancer cells. Nature of the assay: HEXIM1 expression by western blot in LNCaP cells treated with HMBA analogs. How it is done:
FIGS. 2(A-B) illustrate Western blots and a graph showing the effect of HMBA analogs on HEXIM1 expression. LNCaP cells were treated with vehicle, HMBA (5 mM) and its analogs at 500 μM for 24 h. Level of HEXIM1 (upper panel) and β-actin (lower panel) was analyzed by Western blot of cell extracts with HEXIM1 antibody and β-actin antibody respectively. The bands of HEXIM1 were quantified using ImageJ (NIH) and normalized to β-actin. The results are the representative of three independent experiments.
FIGS. 3(A-B) illustrate Western blots and a graph showing lower concentration of HMBA analogs on HEXIM1 expression. LNCaP cells were treated with vehicle, HMBA (5 mM) and identified analogs at 100 μM for 24 h. Level of HEXIM1 (upper panel) and β-actin (lower panel) was analyzed by Western blot of cell extracts with HEXIM1 antibody and β-actin antibody respectively. The bands of HEXIM1 were quantified using ImageJ (NIH) and normalized to β-actin. The results are the representative of three independent experiments.
FIGS. 4(A-B) illustrate Western blots and a graph showing dose-dependent study of compound 4a1 and HMBA on HEXIM1 expression. Level of HEXIM1 (upper panel) and β-actin (lower panel) was analyzed by Western blot of cell extracts with HEXIM1 antibody and β-actin antibody respectively.
HMBA analogs described herein can be synthesized based on the HMBA scaffold and then selected for their ability to induce HEXIM1 expression in an in vitro cell assay. For example, the synthesized HMBA analogs can be administered to cells, such as LNCaP prostate cancer cells, and the level of HEXIM1 in such cells can be measured using western blot analyses. The level of HEXIM1 expression of cells that are treated with a potential HMBA analog can be compared to control cells treated without the HMBA analog or with HMBA. Control cells (untreated or treated with HMBA) can be assigned a relative HEXIM1 expression value. Induction or promotion of HEXIM1 expression is achieved when the HEXIM1 expression relative to the control is increased at least about 1%, 5%, 10%, 15%, 20%, 30%, 50%, 75%, 100%, 200%, or more.
The synthesis of the symmetrical and unsymmetrical derivatives is described in Scheme 1 and 2, respectively. For the symmetrical analogs, moieties A and C were kept identical. Besides the acetyl group of HMBA, methanesulfonyl group, propionyl group or butyryl group were introduced. In addition, a bulky benzoyl group was introduced. The active proton in the amide moiety was replaced with methyl group to generate a series of analogs with lower solubility. For the moiety B, various linkers such as 1,3-propylene, […] 1,4-cyclohexylene, 1,4-phenylene-bis(methylene), 1,4-cyclohexylene-bis(methylene) were tested for optimization. For the unsymmetrical analogs, the A and B moieties were kept the same as HMBA while the C moiety was modified with aryl or alkyl amide. A total of 32 compounds were synthesized, and these compounds were examined for their potency to induce HEXIM1 in LNCaP prostate cancer cells. HMBA (5 mM) was used as a positive control.
Therefore, these three compounds were screened at lower concentrations.

Assay [2] relates to HEXIM1 expression in breast cancer MCF7 cells. Briefly: HEXIM1 protein expression in MCF7 cells. Particulars: 18 h. How it is done:
FIGS. 5(A-C) illustrate (A) the structure of HMBA analog, 4a1, (B) a graph showing HEXIM1 protein expression of breast cancer MCF7 cells treated with vehicle, HMBA, or 4a1 for 18 h, and (C) Western blot analyses of HEXIM1 targets relative to the loading control (GAPDH) of the treated cells.
MCF7, MDA-MB-231, and LNCaP cells were obtained from the American Tissue Culture Collection, and were maintained as previously described. Construction of expression vectors for control miRNA or HEXIM1 miRNAs were described previously. MCF7 or LNCaP cells were transfected with expression vectors containing either the HEXIM1 miRNA insert or a control miRNA insert as previously described. Following blasticidin selection, cells expressing the highest level of GFP were flow-sorted and expanded. MDA-MB-231 cells were transfected with control or expression vector for Flag-tagged HEXIM1 as previously described. The tamoxifen resistant cells line (TOTR) was generated by serial passage of parental MCF7 cells in growth media supplemented with 1 uM trans-hydroxytamoxifen.
Cell lysates were analyzed by western blot as previously described. Anti-HEXIM1 was generated in the Montano laboratory. Primary antibodies against p21 (C-19; cat# sc-397), cyclin D1 (HD11; cat# sc-246) and myc (9E10; cat# sc-40) were obtained from Santa Cruz Biotechnology. Anti-GAPDH was obtained from Millipore. […]

The test system of assay [3] is triple negative MDA-MB-231 breast cancer cells. Nature of the assay: Nile red staining of lipid droplets (differentiation marker), MDA-MB-231 cells. Conditions: 72 hours. How it is done: (§1) FIGS. 8(A-B) illustrate images showing (A) MCF7 cells transfected with control or HEXIM1 siRNA or (B) MDA-MB-231 transfected with control or HEXIM1 expression vector treated with vehicle (DMSO), HMBA, or 4a1 for 72 hours. Lower panels show Western blot analyses of HEXIM1 expression in MDA-MB-231 cells transfected with control or expression vector for Flag-tagged HEXIM1.
(§2) Cells were stained with Nile red for lipid droplets (marker of cell differentiation). Briefly, the stock solution of Nile red 1 mg/ml in acetone was diluted in PBS (1:1000). The fixed cells (4% paraformaldehyde) were incubated with diluted Nile red for 5 minutes at room temperature, rinsed with PBS and observed for the presence of lipid droplets by confocal microscopy. Images were digitally captured using a Leica microscope (Leica Microsystems Inc, IL, USA).

For assay [4], the system named is MCF7 cells. Briefly: Nile red staining of lipid droplets (differentiation marker), MCF7 cells. Particulars: 72 hours. How it is done:
as §1, §2

Assay [5] relates to recruitment of CDK9 to HEXIM1 gene in MCF7 cells. Nature of the assay: ChIP assay, CDK9 recruitment to HEXIM1 gene, MCF7 cells. Particulars: 5 mM HMBA or 50 μM 4a1, 90 minutes. How it is done: FIGS. 6(A-B) illustrate graphs showing HEXIM1 graphs showing HMBA and 4a1 induced recruitment of CDK9 to HEXIM1 promoter in MCF7 and LNCaP cells treated with 5 mM HMBA or 50 μM 4a1 for 90 minutes.
ChIP assays were carried out as previously described. Anti-CDK9 antibody (D-7; cat# sc-13130) was obtained from Santa Cruz Biotechnology.
The induction of HEXIM1 by HMBA appears to involve the release of free P-TEFb from 7SK snRNP, and recruitment of P-TEFb to HEXIM1 gene. P-TEFb is a heterodimer between the cyclin-dependent kinase 9 (Cdk9) and its regulatory subunit Cyclin T1 (CycT1). We thus determined the regulation of the recruitment of CDK9 to the HEXIM1 coding sequence by HMBA and 4a1.

For `COc1ccc(CC(=O)NCCCCCCNC(C)=O)cc1` [Compound 4a1], in assay [1] (LNCaP cells, analogs at 500 μM, 24 h, western blot normalized to β-actin), the “HEXIM1 expression compared to the vehicle treatment (cutoff 2.5 fold)” value is “did not reach the cutoff”. For the same molecule, in assay [1] (western blot, FIG. 4), the “Dose-dependent study on HEXIM1 expression” value is on record as “dose-dependently induced HEXIM1 expression”. For the same molecule, in assay [2], the “Potency of HEXIM1 induction compared to HMBA” value is “increased potency”. Further, the “Cell differentiation (lipid droplets, Nile red)” value in assay [3] and in assay [4] was “induced differentiation” each time. Moreover, in assay [5], the “Recruitment of CDK9 to HEXIM1 gene” value is listed as “induce recruitment of CDK9”.
